Source: patent US10294212B2 (CURADEV PHARMA PRIVATE LTD., priority 2013, dated 2019)

Tested on: CT-26 tumor cells
Assay: Combination therapy with Doxorubicin in CT-26 syngeneic tumor model
Type: in vivo, Balb/c mice
Conditions: vs DOXO or compound alone
Experimental: Test compounds were evaluated in mice syngeneic tumor models described above for usefulness in combination therapy with a chemotheraputic agent, Doxorubicin (DOXO, Sterling Biotech, India).
Tumor bearing Balb/c mice as described earlier were randomized to receive vehicle alone, test compound alone, DOXO alone, or test compound in combination with DOXO. Animals in DOXO treated arm were injected intraperitoneally on day 1 with DOXO formulated in normal saline (7.5 mg/kg). Five days later, the animals were dosed twice a day orally with either a test compound or vehicle alone during the test period till the end of the experiment. A second smaller dose of DOXO at 3 or 4 mg/Kg was administered to the DOXO-treated animals about 3 weeks after the first DOXO dose. Tumor volume was measured in animals as described above.
Non-limiting examples follow. Test compound 97 was formulated in 40% PEG, 20% PG, 10% DACM in normal saline. From day 5 after the first DOXO dose was administered till the end of the study period on day 35, the animals were dosed twice a day orally with compound 97 (75 mg/kg). Three weeks later, the DOXO-treated animals were injected i.p. with a second dose of DOXO (3 mg/kg). Tumor volume was monitored as described above. Tumor tissues and final blood samples were harvested from the mice 4 hours after the final test compound dose. […]

SMILES	tumor volume, combination with DOXO (50 mg/kg oral BID + DOXO)	tumor volume, combination with DOXO (75 mg/kg oral BID + DOXO 7.5 then 3 mg/kg i.p.)
Nc1oc2c(-c3ccncc3)nccc2c1Nc1ccc(F)c(F)c1 [Compound 184, N^3-(3,4-difluorophenyl)-7-(pyridin-4-yl)furo[2,3-c]pyridine-2,3-diamine]	greater reduction in tumor volume	–
Nc1oc2c(-c3ccncc3)nccc2c1Nc1ccc(F)c(Cl)c1 [Compound 97, N^3-(3-Chloro-4-fluorophenyl)-7-(pyridin-4-yl)furo[2,3-c]pyridine-2,3-diamine]	–	greater reduction in tumor volume
